Assay results taken from patent publication EP3270157B1, “SCREENING ASSAY FOR SWEETNESS” (Firmenich SA, priority 2016, dated 2018).
Where two headings read alike, the source gives them in different places.

Molecular target: T1, T1R2/T1R3 receptor (Homo sapiens, UniProt Q7RTX0+Q8TE23)
T1 sequence (Q8TE23 20-839): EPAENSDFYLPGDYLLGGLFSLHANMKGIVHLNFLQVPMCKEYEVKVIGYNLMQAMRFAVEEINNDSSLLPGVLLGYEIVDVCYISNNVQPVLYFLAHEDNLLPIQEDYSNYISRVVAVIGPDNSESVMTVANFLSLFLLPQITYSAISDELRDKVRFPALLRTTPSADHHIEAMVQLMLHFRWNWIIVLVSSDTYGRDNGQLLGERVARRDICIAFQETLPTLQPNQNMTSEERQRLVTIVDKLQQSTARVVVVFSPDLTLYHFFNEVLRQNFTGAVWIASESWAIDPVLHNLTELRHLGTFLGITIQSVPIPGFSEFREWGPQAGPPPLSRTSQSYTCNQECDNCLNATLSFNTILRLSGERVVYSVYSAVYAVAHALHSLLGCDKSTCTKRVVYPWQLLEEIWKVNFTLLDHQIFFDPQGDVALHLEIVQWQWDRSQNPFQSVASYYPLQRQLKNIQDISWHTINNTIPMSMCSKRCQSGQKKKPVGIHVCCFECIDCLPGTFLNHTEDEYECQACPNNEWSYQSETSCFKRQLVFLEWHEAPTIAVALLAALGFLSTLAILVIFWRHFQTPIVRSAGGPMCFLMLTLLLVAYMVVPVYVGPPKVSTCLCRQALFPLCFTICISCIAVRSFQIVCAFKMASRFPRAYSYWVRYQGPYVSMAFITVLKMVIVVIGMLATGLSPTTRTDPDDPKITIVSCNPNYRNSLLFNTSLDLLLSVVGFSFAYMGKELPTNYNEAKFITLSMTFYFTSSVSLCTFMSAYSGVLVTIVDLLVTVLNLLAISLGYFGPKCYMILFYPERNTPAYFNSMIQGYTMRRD
T1 sequence (Q7RTX0 21-852): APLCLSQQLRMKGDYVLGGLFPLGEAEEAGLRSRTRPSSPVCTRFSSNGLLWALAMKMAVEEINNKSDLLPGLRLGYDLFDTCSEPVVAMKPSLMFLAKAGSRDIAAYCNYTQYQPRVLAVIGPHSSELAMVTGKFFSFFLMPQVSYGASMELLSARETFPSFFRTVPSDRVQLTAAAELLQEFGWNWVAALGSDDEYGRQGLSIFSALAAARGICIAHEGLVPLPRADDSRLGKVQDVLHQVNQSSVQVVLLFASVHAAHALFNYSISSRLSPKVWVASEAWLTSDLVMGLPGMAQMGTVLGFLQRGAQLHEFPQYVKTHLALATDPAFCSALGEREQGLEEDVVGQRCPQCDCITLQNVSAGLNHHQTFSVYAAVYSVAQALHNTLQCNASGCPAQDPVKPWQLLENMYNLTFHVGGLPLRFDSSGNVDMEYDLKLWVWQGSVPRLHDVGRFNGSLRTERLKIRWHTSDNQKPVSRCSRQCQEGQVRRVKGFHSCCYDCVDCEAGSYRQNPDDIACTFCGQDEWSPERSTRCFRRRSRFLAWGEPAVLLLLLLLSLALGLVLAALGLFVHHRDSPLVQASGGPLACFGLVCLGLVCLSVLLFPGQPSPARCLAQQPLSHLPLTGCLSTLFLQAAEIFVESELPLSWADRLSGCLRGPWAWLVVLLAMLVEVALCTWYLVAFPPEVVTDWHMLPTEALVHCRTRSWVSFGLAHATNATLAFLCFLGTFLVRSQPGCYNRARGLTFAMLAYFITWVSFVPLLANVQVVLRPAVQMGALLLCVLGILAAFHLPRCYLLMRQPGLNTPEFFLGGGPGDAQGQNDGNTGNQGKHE
Settings: for sensitivity of the assay to initiate receptor internalisation: comparison among the sweet compounds tested; for increase of chemiluminescence signal / internalisation response with concentration: shape of dose-response curve, Fig. 6A and 6B

[1] = Clone #1057 cells, % (w/v), Fig. 6
[2] = Clone #1057 cells, 3 h at 20°C, n=3, Fig. 6

increase of chemiluminescence signal / internalisation response with concentration	SMILES	concentration at which the maximum response (ΔF/Fmax) was reached [1]	sensitivity of the assay to initiate receptor internalisation (Fig. 6)	other results
	CC1=CC(=O)NS(=O)(=O)O1 [acesulfame-K]			concentration at which the maximum response (ΔF/Fmax) was reached: 5.5%
rather slow increase	O=C(CO)[C@@H](O)[C@H](O)[C@H](O)CO [fructose]	9%	highest sensitivity	maximum level of chemiluminescence (ΔF/Fmax) (human, hek293 cells, 3 h): 5.2
	OC[C@@H](O)[C@@H](O[C@H]1O[C@H](CO)[C@@H](O)[C@H](O)[C@H]1O)[C@H](O)[C@@H](O)CO [maltitol]	17.0%		maximum level of chemiluminescence (ΔF/Fmax) [2]: nearly equal
	OC[C@@H](O)[C@@H](O)[C@H](O)[C@H](O)CO [mannitol]	7.7%		maximum level of chemiluminescence (ΔF/Fmax) [2]: nearly equal
	OC[C@H]1O[C@H](O[C@]2(CCl)O[C@H](CCl)[C@@H](O)[C@@H]2O)[C@H](O)[C@@H](O)[C@H]1Cl [sucralose]	15%	high sensitivity	concentration at which receptor internalisation responses were initiated (Clone #1057 cells, Fig. 6): already observed at the lowest concentration tested
rather slow increase	OC[C@H]1O[C@@](CO)(O[C@H]2O[C@H](CO)[C@@H](O)[C@H](O)[C@H]2O)[C@@H](O)[C@@H]1O [sucrose]			

SMILES	increase of chemiluminescence signal / internalisation response with concentration	concentration at which the maximum response (ΔF/Fmax) was reached [1]	sensitivity of the assay to initiate receptor internalisation (Fig. 6)	other results
OC[C@H]1O[C@H](O[C@H]2[C@H](O)[C@@H](O)[C@H](O)O[C@@H]2CO)[C@H](O)[C@@H](O)[C@@H]1O [maltose]	steep increase	16.5%	lowest sensitivity of the natural sugars tested	
